These results are taken from patent US7879868B2 (Novartis AG, priority 2002, dated 2011).

Read-outs that look alike come from different tables or passages of the source.

One series relates to Saos2BCRPMUT#10 cells. Nature of the series: cells.
The next series relates to Saos2pcDNA#3#2 cells. Nature of the series: Growth inhibition in vector control Saos2 cells. Format: cell-based, human.
For the next series, the system named is Saos2BCRP#4 cells. Kind of series: cells.
A short description of series [1]: Effect of imatinib on irinotecan pharmacokinetics in mice. The settings on record: for SN-38 plasma exposure: irinotecan 10 mg/kg oral; for bioavailability: mouse, plasma, oral. The text has this:
Ci: rate of clearance; Ka: absorption rate; F: calculated bioavailability (relative to intravenous dosing).

A further series deals with T1, BCRP (Homo sapiens, UniProt Q9UNQ0).
T1 sequence (Q9UNQ0 1-655): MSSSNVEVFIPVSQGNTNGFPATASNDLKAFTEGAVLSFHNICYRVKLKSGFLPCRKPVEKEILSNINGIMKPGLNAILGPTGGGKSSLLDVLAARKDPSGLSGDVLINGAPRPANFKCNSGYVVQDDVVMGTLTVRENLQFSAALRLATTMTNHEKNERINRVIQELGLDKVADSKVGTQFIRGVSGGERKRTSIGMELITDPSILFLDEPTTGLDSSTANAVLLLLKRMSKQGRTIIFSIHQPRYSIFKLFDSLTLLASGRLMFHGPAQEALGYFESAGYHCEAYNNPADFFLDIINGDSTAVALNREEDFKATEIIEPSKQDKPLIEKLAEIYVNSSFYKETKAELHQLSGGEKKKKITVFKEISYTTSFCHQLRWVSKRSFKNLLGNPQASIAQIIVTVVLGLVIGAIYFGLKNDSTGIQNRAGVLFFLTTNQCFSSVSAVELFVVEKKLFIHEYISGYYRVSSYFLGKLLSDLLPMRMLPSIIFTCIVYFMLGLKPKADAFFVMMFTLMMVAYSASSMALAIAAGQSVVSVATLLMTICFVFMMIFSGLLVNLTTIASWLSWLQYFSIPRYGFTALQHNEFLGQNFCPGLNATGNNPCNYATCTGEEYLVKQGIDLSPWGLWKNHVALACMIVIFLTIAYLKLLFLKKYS

The mark [2] stands for this setting: Homo sapiens, SAOS-2, read-out: concentration of topotecan causing 50% growth inhibition, in presence of 1 μM imatinib.
The mark [3] stands for this setting: Homo sapiens, SAOS-2, read-out: concentration of topotecan causing 50% growth inhibition, in presence of 3 μM imatinib.
Where [4] appears, read: Homo sapiens, SAOS-2, read-out: concentration of topotecan causing 50% growth inhibition, in presence of 5 μM imatinib.
Setting [5] is: Homo sapiens, SAOS-2, read-out: concentration of topotecan causing 50% growth inhibition, topotecan alone.
[6] abbreviates: read-out: concentration of SN-38 causing 50% growth inhibition (IC50), imatinib 0 μM.
Setting [7] is: read-out: concentration of SN-38 causing 50% growth inhibition (IC50), imatinib 0.1 μM.
Where [8] appears, read: read-out: concentration of SN-38 causing 50% growth inhibition (IC50), imatinib 0.3 μM.
Setting [9] is: read-out: concentration of SN-38 causing 50% growth inhibition (IC50), imatinib 1.0 μM.
Setting [10] is: read-out: concentration of SN-38 causing 50% growth inhibition (IC50), imatinib 3.0 μM.

`CC[C@@]1(O)C(=O)OCc2c1cc1n(c2=O)Cc2cc3c(CN(C)C)c(O)ccc3nc2-1` [topotecan]: the IC50 was 9 nM in the series with Saos2BCRPMUT#10 cells (Homo sapiens, SAOS-2, read-out: IC50 concentration of topotecan, Saos2Mut#10 cells); 18 nM with Saos2BCRPMUT#10 cells (setting [2]); 9.9 nM with Saos2BCRPMUT#10 cells (setting [3]); 15 nM with Saos2BCRPMUT#10 cells (setting [4]); 9 nM in the series with Saos2BCRPMUT#10 cells (setting [5]); 16 nM in the series on Saos2pcDNA#3#2 cells (Homo sapiens, SAOS-2, Saos2pcDNA cells, read-out: IC50 concentration of topotecan). Moreover, the IC50 was 23 nM with Saos2pcDNA#3#2 cells (Homo sapiens, SAOS-2, in presence of 1 μM imatinib, read-out: concentration of topotecan causing 50% growth inhibition); 20 nM in the series with Saos2pcDNA#3#2 cells (Homo sapiens, SAOS-2, in presence of 3 μM imatinib, read-out: concentration of topotecan causing 50% growth inhibition); 23 nM in the series with Saos2pcDNA#3#2 cells (Homo sapiens, SAOS-2, in presence of 5 μM imatinib, read-out: concentration of topotecan causing 50% growth inhibition); 20 nM with Saos2pcDNA#3#2 cells (Homo sapiens, SAOS-2, topotecan alone, read-out: concentration of topotecan causing 50% growth inhibition); 167 nM with Saos2BCRP#4 cells (Homo sapiens, SAOS-2, read-out: IC50 concentration of topotecan, Saos2BCRP#4 cells); 35 nM in the series with Saos2BCRP#4 cells (setting [2]). The IC50 came out at 24 nM in the series with Saos2BCRP#4 cells (setting [3]), 22 nM with Saos2BCRP#4 cells (setting [4]) and 254 nM in the series with Saos2BCRP#4 cells (setting [5]).

Take `CCc1c2c(nc3ccc(O)cc13)-c1cc3c(c(=O)n1C2)COC(=O)[C@]3(O)CC` [SN-38, 7-ethyl-10-hydroxycamptothecin]: the IC50 in the series on Saos2BCRPMUT#10 cells (setting [6]) is 1.7 nM; in the series with Saos2BCRPMUT#10 cells (setting [7]) it was 1.7 nM; in the series with Saos2BCRPMUT#10 cells (setting [8]), 1.6 nM; in the series on Saos2BCRPMUT#10 cells (setting [9]) it was 1.7 nM; in the series with Saos2BCRPMUT#10 cells (setting [10]), 1.6 nM; with Saos2pcDNA#3#2 cells (setting [6]), 2.9 nM. Besides, the IC50 was 2.7 nM in the series with Saos2pcDNA#3#2 cells (setting [7]); 2.7 nM in the series with Saos2pcDNA#3#2 cells (setting [8]); 3.3 nM in the series with Saos2pcDNA#3#2 cells (setting [9]); 3.7 nM with Saos2pcDNA#3#2 cells (setting [10]); more than 100 nM with Saos2BCRP#4 cells (setting [6]); 82 nM in the series on Saos2BCRP#4 cells (setting [7]). Besides, the IC50 with Saos2BCRP#4 cells (setting [8]) worked out at 29 nM; with Saos2BCRP#4 cells (setting [9]), 14 nM; in the series with Saos2BCRP#4 cells (setting [10]) it was 7 nM. Also, the SN-38 plasma exposure in series [1] (mice, with imatinib 50 mg/kg oral) was determined as 775 ng/h/mL; in series [1] (mice, without imatinib), 263 ng/h/mL.

`CCc1c2c(nc3ccc(OC(=O)N4CCC(N5CCCCC5)CC4)cc13)-c1cc3c(c(=O)n1C2)COC(=O)[C@]3(O)CC` [IRN]: the bioavailability in series [1] was 23 ± 2%; in series [1] (10 mg/kg) it was 9 ± 2%.

In the case of `Cc1ccc(NC(=O)c2ccc(CN3CCN(C)CC3)cc2)cc1Nc1nccc(-c2cccnc2)n1` [imatinib], the “reversal of BCRP-mediated resistance to topotecan (summary of Table 1)” value on BCRP is listed as “complete reversal of BCRP-mediated resistance to topotecan”. Besides, the “effect of imatinib on oral bioavailability of irinotecan” value in series [1] (mice, imatinib 50 mg/kg oral + irinotecan 10 mg/kg oral) was “enhances oral bioavailability of irinotecan”.
